Each structure is given as a SMILES string. Read-outs that look alike come from different tables or passages of the source.

In data set [1] the test system is motoneurons in the isolated spinal cord of a neonatal rat. Briefly: Depolarization of motoneurons in the isolated spinal cord of a neonatal rat (extracellular records, Evans and Watkins method). The format is cell-based. The settings on record: for minimal effective concentration: read-out: MEC (minimum effective concentration for causing depolarizations of motoneurons); for Specific activity: relative to L-glutamic acid = 1; for Effect of Mg++ ions on depolarizing activity: in the presence of Mg++ ions; for Agonist type (glutamate receptor subtype): isolated new-born rat spinal cord. How it is done: In accordance with the method described in Evans, R. H. and Watkins, J. C., European J. Pharmac., 50 123-129, 1978, the minimum effective concentrations (MEC) of L-glutamic acid and compounds (1), (1a), (1b) and (1c) of the present invention for causing depolarizations of motoneurons in the isolated spinal cord of a neonatal rat under perfusion with an artificial physiological solution ([…] fluid) were measured as extracellular records in the […] root.

The conditions of data set [2]: isolated from Aesculus parviflora and Blighia sapida; Fowden et al. 1969; cited from earlier work.
The mark [3] stands for this setting: isolated neonatal rat spinal cord perfused with artificial physiological solution, (-) = Ineffective.

As for `N[C@@H](CCC(=O)O)C(=O)O` [L-Glu, L-glutamic acid, reference compound], the minimal effective concentration in data set [1] (Rattus norvegicus) amounted to 100 µM. Further, the Specific activity in data set [1] ((-) = Ineffective) is given as 1.

Consider `N[C@H](C(=O)O)[C@H]1C[C@H]1C(=O)O` [(1c), (2S,3S,4R)-carboxycyclopropylglycine], for which the Undesired effects entry in data set [2] was “hypoglycemia and vomiting”. For the same compound, the minimal effective concentration in data set [1] (setting [3]) was found to be 500 µM. The same compound gave a Specific activity in data set [1] ((-) = Ineffective) of 0.5.

As for `N[C@H](C(=O)O)[C@H]1C[C@@H]1C(=O)O` [(1a), (2S,3S,4S)-carboxycyclopropylglycine], in data set [2], the Undesired effects result is “hypoglycemia and vomiting”. In data set [1], the “Effect of Mg++ ions on depolarizing activity” value is reported as “Unaffected” and the “Agonist type (glutamate receptor subtype)” value was “agonist of the kainate type”. Moreover, the minimal effective concentration in data set [1] (setting [3]) was determined as 50 µM. Further, in data set [1] ((-) = Ineffective), the Specific activity came out at 5.

For the compound `N[C@H](C(=O)O)[C@@H]1C[C@@H]1C(=O)O` [Compound (1), (2S,3R,4S)-carboxycyclopropylglycine], the “Potency relative to NMDA” value in data set [1] (compared with NMDA activity of 2×10^-5 molar) came out at 5 times. Moreover, in data set [1], the “Effect of Mg++ ions on depolarizing activity” value is on record as “activity disappeared” and the “Agonist type (glutamate receptor subtype)” value is recorded as “agonist of the NMDA type”. Besides, the minimal effective concentration in data set [1] (setting [3]) is 1 µM. For the same compound, in data set [1] ((-) = Ineffective), the Specific activity worked out at 100.

(Values after patent US4959493A, “Carboxycyclopropylglycine and process for producing the same” (Suntory Limited, priority 1987, dated 1990).)
